Measured values: patent US20090060984A1, “ANIONIC SURFACTANTS LETHAL TO GRAM-POSITIVE BACTERIA” (priority 2007, published 2009)
Values joined by “and” are separate entries in the source; they are usually repeats but may differ in a detail not shown here. Equal values may be shown once. Read-outs that look alike come from different tables or passages of the source.

Experiments:
[1] = tested on: Streptococcus viridans; test: Growth on surfactant/TSA agar plates; format: cell-based; details: Streptococcus viridans strain EM8
[2] = tested on: Bacillus subtilis; test: Growth on surfactant/TSA agar plates; format: cell-based; also: test concentration or dose not given here
[3] = tested on: Streptococcus agalactiae; test: Growth on surfactant/TSA agar plates; format: cell-based; details: Streptococcus agalactiae strain EM13
[4] = tested on: Enterococcus fecalis; test: Growth on surfactant/TSA agar plates; format: cell-based; also: test concentration or dose not given here
[5] = tested on: Micrococcus luteus; test: Growth on surfactant/TSA agar plates; format: cell-based; details: Micrococcus luteus strain EM17
[6] = tested on: Streptococcus bovis; test: Growth on surfactant/TSA agar plates; format: cell-based; details: Streptococcus bovis strain EM12
[7] = tested on: Staphylococcus epidermidis; test: Growth on surfactant/TSA agar plates; format: cell-based; details: Staphylococcus epidermidis strain EM3/ATCC12228
[8] = tested on: Streptococcus pyogenes; test: Growth on surfactant/TSA agar plates; format: cell-based; details: Streptococcus pyogenes strain EM14; also: test concentration or dose not given here
[9] = tested on: Staphylococcus aureus; test: Growth on surfactant/TSA agar plates; format: cell-based; also: test concentration or dose not given here
[10] = tested on: E. coli; format: cell-based, Escherichia coli; details: 24 h contact time
Description: Escherichia coli ATCC 11229 (Culti-loops, Remel Europe, Dartford, Kent, UK) and Pseudomonas aeruginosa ATCC 15442 (Cuti-loops, Remel Europe, Dartford, Kent, UK) were selected as model Gram-negative organisms for the challenge testing of the antimicrobial coatings. Each bacterial strain was streaked for isolated colonies on Tryptic Soy Agar (TSA) plates (Difco, Becton Dickinson, Sparks, Md., U.S.A.) and incubated at 37° C. for 12 to 18 hours. Broth cultures were prepared by first picking 1-2 isolated colonies from TSA plates and inoculating 5 mL Tryptic Soy Broth (TSB; Difco, Becton Dickinson, Sparks, Md., U.S.A.) in a 16 mm test tube. This culture was grown in a shaking water bath at 150 RPM for 8 hours at 37° C. After the eight hours, 125 μL of this culture was added to 50 mL of TSB in a side-arm Klett flask and grown for approximately 8 hours in shaking water bath (150 RPM) at 37° C. The bacterial broths were grown to an A590 of 1.2-1.5, which correlated to approximately 10^9 CFU (colony forming units)/mL. 25 mL of this broth were transferred to a sterile 30 mL Oakridge tube and centrifuged at 12,000×g for 10 minutes at 4° C. (Sorval SS34 rotor) to pelletize the bacteria. The bacterial pellet was washed once and resuspended in 25 mL of phosphate buffer solution (PBS; BBL, FTA Hemaglutination Buffer, Becton Dickinson, Sparks, Md., U.S.A.). The suspension was diluted with PBS to achieve the target range of 10^5-10^6 CFU/mL and used to inoculate the slides containing antibacterial coatings.
Xylene/methanol (5:1 by weight) is used to dissolve the silver surfactants to facilitate homogeneously mixing with the alkyd resin composition.
A minus sign (−) denotes no growth, a plus sign (+) denotes confluent growth, and a capital P (P) denotes […].
Xylene/methanol (5:1 by weight) is used to dissolve the silver surfactants to facilitate homogeneously mixing with the acrylic resin composition.
The same laboratory experimental solvent based acrylic paint described in Example 34 is used to challenge E. coli by adding various levels of the invention silver anionic surfactants as described in Example 34.
A commercially available 2K epoxy resin paint is obtained from a local paint store (Sherwin Williams High Solids Epoxy Tile Clad HS; Part A B62WC11; Part B B60VZ75, The Sherwin Williams Company) and the same silver anionic surfactants described in Example 35 are used to prepare test coatings on microscope slides containing various levels of silver ion. These surfactants are dissolved in xylene/methanol (5:1 by weight) to facilitate their quantitative addition to the coating mixture.

[11] = Bacillus subtilis strain ATCC33
[12] = Enterococcus fecalis strain EM19 (first listing)
[13] = Enterococcus fecalis strain EM19 (second listing)
[14] = Staphylococcus aureus strain ATCC6538
[15] = Staphylococcus aureus strain EM24/ATCC25923
[16] = laboratory solvent based acrylic paint

## CCCCCCCCCCCCCCCCCCNC(=O)CC(C(=O)[O-])S(=O)(=O)[O-].[Na+].[Na+] (stereo not shown) [Compound S3]
[1]
  No Growth(−)/Full Growth(+), replicate columns: +
[2]; [11]
  No Growth(−)/Full Growth(+), replicate columns: −
[2]; Bacillus subtilis strain EM27
  No Growth(−)/Full Growth(+), replicate columns: −
[3]
  No Growth(−)/Full Growth(+), replicate columns: −
[4]; [12]
  No Growth(−)/Full Growth(+), replicate columns: −
[4]; [13]
  No Growth(−)/Full Growth(+), replicate columns: +
[5]
  No Growth(−)/Full Growth(+), replicate columns: −
[6]
  No Growth(−)/Full Growth(+), replicate columns: −
[7]
  No Growth(−)/Full Growth(+), replicate columns: −
[8]
  No Growth(−)/Full Growth(+), replicate columns: −
[9]; [14]
  No Growth(−)/Full Growth(+), replicate columns: −
[9]; [15]
  No Growth(−)/Full Growth(+), replicate columns: −

## CCCCCCCCCCCCCOC(=O)CC(C(=O)OCCCCCCCCCCCCC)S(=O)(=O)[O-].[Na+] (stereo not shown) [Compound S6]
[1]
  No Growth(−)/Full Growth(+), replicate columns: +
[2]; [11]
  No Growth(−)/Full Growth(+), replicate columns: + (2×) and −
[2]; Bacillus subtilis strain EM27
  No Growth(−)/Full Growth(+), replicate columns: − (2×) and +
[3]
  No Growth(−)/Full Growth(+), replicate columns: − (2×) and +
[4]; [12]
  No Growth(−)/Full Growth(+), replicate columns: +
[4]; [13]
  No Growth(−)/Full Growth(+), replicate columns: +
[5]
  No Growth(−)/Full Growth(+), replicate columns: +
[6]
  No Growth(−)/Full Growth(+), replicate columns: −
[7]
  No Growth(−)/Full Growth(+), replicate columns: +
[8]
  No Growth(−)/Full Growth(+), replicate columns: −
[9]; [14]
  No Growth(−)/Full Growth(+), replicate columns: +
[9]; [15]
  No Growth(−)/Full Growth(+), replicate columns: +

## CCCCC(CC)COC(=O)CC(C(=O)OCC(CC)CCCC)S(=O)(=O)[O-].[Na+] (stereo not shown) [Compound S1]
[1]
  No Growth(−)/Full Growth(+), replicate columns: −
[2]; [11]
  No Growth(−)/Full Growth(+), replicate columns: −
[2]; Bacillus subtilis strain EM27
  No Growth(−)/Full Growth(+), replicate columns: −
[3]
  No Growth(−)/Full Growth(+), replicate columns: −
[4]; [12]
  No Growth(−)/Full Growth(+), replicate columns: −
[4]; [13]
  No Growth(−)/Full Growth(+), replicate columns: −
[5]
  No Growth(−)/Full Growth(+), replicate columns: −
[6]
  No Growth(−)/Full Growth(+), replicate columns: −
[7]
  No Growth(−)/Full Growth(+), replicate columns: −
[8]
  No Growth(−)/Full Growth(+), replicate columns: −
[9]; [14]
  No Growth(−)/Full Growth(+), replicate columns: −
[9]; [15]
  No Growth(−)/Full Growth(+), replicate columns: −

## CC(C)CC(C)OC(=O)CC(C(=O)OC(C)CC(C)C)S(=O)(=O)[O-].[Na+] (stereo not shown) [Compound S4]
[1]
  No Growth(−)/Full Growth(+), replicate columns: +
[2]; [11]
  No Growth(−)/Full Growth(+), replicate columns: − and +
[2]; Bacillus subtilis strain EM27
  No Growth(−)/Full Growth(+), replicate columns: +
[3]
  No Growth(−)/Full Growth(+), replicate columns: − and +
[4]; [12]
  No Growth(−)/Full Growth(+), replicate columns: +
[4]; [13]
  No Growth(−)/Full Growth(+), replicate columns: +
[5]
  No Growth(−)/Full Growth(+), replicate columns: − (2×) and +
[6]
  No Growth(−)/Full Growth(+), replicate columns: −
[7]
  No Growth(−)/Full Growth(+), replicate columns: +
[8]
  No Growth(−)/Full Growth(+), replicate columns: −
[9]; [14]
  No Growth(−)/Full Growth(+), replicate columns: +
[9]; [15]
  No Growth(−)/Full Growth(+), replicate columns: +

## CCCCC(CC)COP(=O)([O-])OCCC(CC)CCC.[Na+] (stereo not shown) [Compound S2]
[1]
  No Growth(−)/Full Growth(+), replicate columns: −
[2]; [11]
  No Growth(−)/Full Growth(+), replicate columns: −
[2]; Bacillus subtilis strain EM27
  No Growth(−)/Full Growth(+), replicate columns: −
[3]
  No Growth(−)/Full Growth(+), replicate columns: −
[4]; [12]
  No Growth(−)/Full Growth(+), replicate columns: −
[4]; [13]
  No Growth(−)/Full Growth(+), replicate columns: −
[5]
  No Growth(−)/Full Growth(+), replicate columns: −
[6]
  No Growth(−)/Full Growth(+), replicate columns: −
[7]
  No Growth(−)/Full Growth(+), replicate columns: −
[8]
  No Growth(−)/Full Growth(+), replicate columns: −
[9]; [14]
  No Growth(−)/Full Growth(+), replicate columns: −
[9]; [15]
  No Growth(−)/Full Growth(+), replicate columns: −

## O=C(CC(C(=O)OC1CCCCC1)S(=O)(=O)[O-])OC1CCCCC1.[Na+] (stereo not shown) [Compound S5]
[1]
  No Growth(−)/Full Growth(+), replicate columns: +
[2]; [11]
  No Growth(−)/Full Growth(+), replicate columns: −
[2]; Bacillus subtilis strain EM27
  No Growth(−)/Full Growth(+), replicate columns: − and +
[3]
  No Growth(−)/Full Growth(+), replicate columns: − (2×) and +
[4]; [12]
  No Growth(−)/Full Growth(+), replicate columns: +
[4]; [13]
  No Growth(−)/Full Growth(+), replicate columns: +
[5]
  No Growth(−)/Full Growth(+), replicate columns: + and − (2×)
[6]
  No Growth(−)/Full Growth(+), replicate columns: −
[7]
  No Growth(−)/Full Growth(+), replicate columns: +
[8]
  No Growth(−)/Full Growth(+), replicate columns: −
[9]; [14]
  No Growth(−)/Full Growth(+), replicate columns: +
[9]; [15]
  No Growth(−)/Full Growth(+), replicate columns: +

## CCCCCCCCCCCCOS(=O)(=O)[O-].[Ag+] [AgDS, Silver dodecylsufate]
[10]; alkyd resin paint, 0.0012 weight % Ag in coating
  E. coli growth on coating: +
[10]; alkyd resin paint, 0.003 weight % Ag in coating
  E. coli growth on coating: +
[10]; alkyd resin paint, 0.006 weight % Ag in coating
  E. coli growth on coating: +
[10]; alkyd resin paint, 0.012 weight % Ag in coating
  E. coli growth on coating: +
[10]; alkyd resin paint, 0.03 weight % Ag in coating
  E. coli growth on coating: −
[10]; alkyd resin paint, 0.06 weight % Ag in coating
  E. coli growth on coating: −
[10]; alkyd resin paint, 0.12 weight % Ag in coating
  E. coli growth on coating: −
[10]; commercial 2K epoxy paint, 0.0012 weight % Ag in coating
  E. coli growth on coating: +
[10]; commercial 2K epoxy paint, 0.003 weight % Ag in coating
  E. coli growth on coating: +
[10]; commercial 2K epoxy paint, 0.006 weight % Ag in coating
  E. coli growth on coating: +
[10]; commercial 2K epoxy paint, 0.03 weight % Ag in coating
  E. coli growth on coating: −
[10]; commercial 2K epoxy paint, 0.06 weight % Ag in coating
  E. coli growth on coating: −
[10]; commercial 2K epoxy paint, 0.12 weight % Ag in coating
  E. coli growth on coating: −
[10]; commercial 2K epoxy paint
  Silver level giving complete inhibition of growth: 0.03 % w/w
  Silver level partially effective: 0.012 % w/w
[10]; commercial solvent borne acrylate paint, 0.0012 weight % Ag in coating
  E. coli growth on coating: +
[10]; commercial solvent borne acrylate paint, 0.003 weight % Ag in coating
  E. coli growth on coating: +
[10]; commercial solvent borne acrylate paint, 0.006 weight % Ag in coating
  E. coli growth on coating: +
[10]; commercial solvent borne acrylate paint, 0.012 weight % Ag in coating
  E. coli growth on coating: +
[10]; commercial solvent borne acrylate paint, 0.03 weight % Ag in coating
  E. coli growth on coating: −
[10]; commercial solvent borne acrylate paint, 0.06 weight % Ag in coating
  E. coli growth on coating: −
[10]; commercial solvent borne acrylate paint, 0.12 weight % Ag in coating
  E. coli growth on coating: −
[10]; commercial solvent borne acrylic paint
  Silver level effective at preventing any growth: completely effective at this lower level
[10]; [16]
  Silver level preventing any growth: 0.03 % w/w
  Silver level with partial inhibition: 0.012%
[10]; laboratory solvent borne acrylate paint, 0.0012 weight % Ag in coating
  E. coli growth on coating: +
[10]; laboratory solvent borne acrylate paint, 0.003 weight % Ag in coating
  E. coli growth on coating: +
[10]; laboratory solvent borne acrylate paint, 0.006 weight % Ag in coating
  E. coli growth on coating: +
[10]; laboratory solvent borne acrylate paint, 0.03 weight % Ag in coating
  E. coli growth on coating: −
[10]; laboratory solvent borne acrylate paint, 0.06 weight % Ag in coating
  E. coli growth on coating: −
[10]; laboratory solvent borne acrylate paint, 0.12 weight % Ag in coating
  E. coli growth on coating: −
